The values below come from PMC6749586, “Design, Synthesis, and Anticancer Effect Studies of Iridium(III) Polypyridyl Complexes against SGC-7901 Cells” (Molecules, 2019).

The subject of assay [1] is HeLa cells. The assay can be described thus: MTT cytotoxicity assay, HeLa. Type of assay: cell-based, human. The settings on record: 48 h, read-out: IC50 toward HeLa. The source says:
(§1) The lung carcinoma cell line A549, the cervical cancer cell line HeLa, the esophageal cancer cell line Eca-109, and the human hepatocellular carcinoma cell line BEL-7402 were purchased from the cell bank of the Cell Institute of Sinica Academia Shanghai (Shanghai, China). The gastric adenocarcinoma cell line SGC-7901, the hepatocellular carcinoma cell line HepG2, and the mouse embryonic fibroblast cell line NIH 3T3 were obtained from the Experimental Animal Center of Sun Yat-Sen University (Guangzhou, China). The BEL-7402 and SGC-7901 cell lines were cultured in Roswell Park Memorial Institute Medium (RPMI-1640); and A549, Eca-109, HepG2, and NIH 3T3 cells were grown in Dulbecco’s Modified Eagle’s Medium (DMEM), including 10% fetal bovine serum (FBS), 100 units mL^−1 penicillin/streptomycin mixture, and 2.0 g/L of NaHCO3. Cell passage experiments were performed with trypsin every 2 days to maintain exponential growth. All cells were cultured until they reached logarithmic growth phase, unless specifically noted.
(§2) Cell cytotoxicity following treatment with the iridium(III) complexes was detected by MTT assay. The cells were seeded into 96-well micro-assay culture plates (1 × 10^4 cells per well) and grown overnight in a 5% CO2 incubator at 37 °C. Then, the cell lines were treated with gradient concentrations of the complexes 1–3. After treatment for 48 h, MTT solution (5 mg mL^−1, […]) dissolved in phosphate buffer was added to each well and the cells were further cultured for 4 h. Upon completion of incubation, the solvent was removed and 100 µL/well of buffer containing dimethylformamide (50%) and sodium dodecyl sulfate (20%) was added to dissolve the produced formazan. The absorbance of each well was measured with a microplate reader at a wavelength of 490 nm. The IC50 values were determined from the plots of viability versus concentration used to treat the cells. Three independent experiments were performed to obtain the mean values.
For orientation: Tetrazolium assays rely on reduction of a dye to a coloured formazan, in cell work by metabolically active cells.

For assay [2], the system named is HepG2 cells. The assay can be described thus: MTT cytotoxicity assay, HepG2. The settings on record: read-out: IC50 toward HepG2. The assay is classed as cell-based, human.
Excerpt: as §1, §2

The subject of assay [3] is NIH 3T3 cells. The assay can be described thus: MTT cytotoxicity assay, normal NIH 3T3. Type of assay: cell-based, mouse. The settings on record: Mus musculus, NIH3T3, 48 h, read-out: IC50 toward NIH 3T3.
Excerpt: as §1, §2

For assay [4], the system named is SGC-7901 cells. Description: MTT cytotoxicity assay, SGC-7901. The assay is classed as cell-based, human. To be noted: read-out: IC50 toward SGC-7901.
Excerpt: as §1, §2

Assay [5] concerns BEL-7402 cells. Description: MTT cytotoxicity assay, BEL-7402. Type of assay: cell-based, human. To be noted: read-out: IC50 toward BEL-7402.
Excerpt: as §1, §2

For assay [6], the system named is A549 cells. Description: MTT cytotoxicity assay, A549. To be noted: read-out: IC50 toward A549. The assay is classed as cell-based, human.
Excerpt: as §1, §2

The test system of assay [7] is Eca-109 cells. The assay can be described thus: MTT cytotoxicity assay, Eca-109. Type of assay: cell-based, human. To be noted: 48 h, read-out: IC50 toward Eca-109. The source says:
The lung carcinoma cell line A549, the cervical cancer cell line HeLa, the esophageal cancer cell line Eca-109, and the human hepatocellular carcinoma cell line BEL-7402 were purchased from the cell bank of the Cell Institute of Sinica Academia Shanghai (Shanghai, China). The gastric adenocarcinoma cell line SGC-7901, the hepatocellular carcinoma cell line HepG2, and the mouse embryonic fibroblast cell line NIH 3T3 were obtained from the Experimental Animal Center of Sun Yat-Sen University (Guangzhou, China). […] Cell passage experiments were performed with trypsin every 2 days to maintain exponential growth. All cells were cultured until they reached logarithmic growth phase, unless specifically noted. Cell cytotoxicity following treatment with the iridium(III) complexes was detected by MTT assay. The cells were seeded into 96-well micro-assay culture plates (1 × 10^4 cells per well) and grown overnight in a 5% CO2 incubator at 37 °C. Then, the cell lines were treated with gradient concentrations of the complexes 1–3. After treatment for 48 h, MTT solution (5 mg mL^−1, […]) dissolved in phosphate buffer was added to each well and the cells were further cultured for 4 h. […] The absorbance of each well was measured with a microplate reader at a wavelength of 490 nm. The IC50 values were determined from the plots of viability versus concentration used to treat the cells. Three independent experiments were performed to obtain the mean values.

The subject of assay [8] is SGC-7901 cells. Description: Mitochondrial membrane potential assay with JC-1. Type of assay: cell-based, human. To be noted: substance alone: 4.0 µM 1, 15.0 µM 2, 15.0 µM 3, CCCP or NAC; 24 h; control 12.03. The method, then:
The SGC-7901 cells were seeded into a 12-well plate at a density of 1.5 × 10^5 cells per well and incubated to attach at 37 °C in 5% CO2. Overnight, the cells were treated with complexes 1–3 for 24 h. CCCP was used as a positive control. Then, the cells were incubated with JC-1 for 30 min at room temperature, after which the remaining dye was washed away with PBS. The samples were then observed under the ImageXpress Micro XLS system and flow cytometry was employed to quantify the fluorescence intensity.

Read-outs that look alike come from different tables or passages of the source. Some results are limits rather than exact numbers.

Broadly, the IC50 is the concentration needed to halve the response being measured. For `Nc1c(N)c2cccnc2c2ncccc12` [DAP, 5,6-diamino-phenanthroline], the IC50 in assay [1] (Homo sapiens, HeLa) came out at 9.2 ± 1 µM; in assay [2] (Homo sapiens, HepG2, 48 h), 4.6 ± 0.8 µM; in assay [3], 12.3 ± 0.8 µM; in assay [4] (Homo sapiens, SGC-7901, 48 h), 15.8 ± 2.8 µM; in assay [5] (Homo sapiens, Bel-7402, 48 h), 37.4 ± 3.2 µM; in assay [6] (Homo sapiens, A549, 48 h), 5 ± 0.3 µM.

Consider `Nc1c([N+](=O)[O-])c2cccnc2c2ncccc12` [NAP, 5-nitro-6-amino-phenanthroline], for which the IC50 is 45.8 ± 4 µM in assay [1] (Homo sapiens, HeLa); 56 ± 1.9 µM in assay [2] (Homo sapiens, HepG2, 48 h); 61.9 ± 1.9 µM in assay [3]; 90.9 ± 7.4 µM in assay [4] (Homo sapiens, SGC-7901, 48 h); 21.1 ± 0.8 µM in assay [5] (Homo sapiens, Bel-7402, 48 h); 42.7 ± 2.1 µM in assay [6] (Homo sapiens, A549, 48 h).

Regarding `N.N.[Cl][Pt][Cl]` [Cisplatin, reference compound], the IC50 came out at 7 ± 1 µM in assay [1]; 12.5 ± 1.5 µM in assay [2] (48 h); 11.2 ± 0.6 µM in assay [7]; 3.6 ± 0.5 µM in assay [4] (48 h); 10.8 ± 1.6 µM in assay [5] (48 h); 7.5 ± 1.3 µM in assay [6] (48 h).

Regarding `CC(=O)N[C@@H](CS)C(=O)O` [NAC, N-acetylcysteine, reference compound], the “Ratio of red/green JC-1 fluorescence intensity (R)” value in assay [8] is recorded as 19.40.

Take `O=[N+]([O-])c1cc2cccnc2c2ncccc12` [NP, 5-nitrophenanthroline]: the IC50 in assay [1] (Homo sapiens, HeLa) is 18.1 ± 1.7 µM; in assay [2] (Homo sapiens, HepG2, 48 h) it was 16.7 ± 0.5 µM; in assay [3] it was over 200 µM; in assay [4] (Homo sapiens, SGC-7901, 48 h), 18.4 ± 0.1 µM; in assay [5] (Homo sapiens, Bel-7402, 48 h), 23.5 ± 1.1 µM; in assay [6] (Homo sapiens, A549, 48 h), 11.1 ± 0.7 µM.
